Assay results from patent US12209081B2 (Katholieke Universiteit Leuven, priority 2020, dated 2025).

Target: mouse TRPM3α2 (mTRPM3) ion channel (Mus musculus (Mouse), UniProt J9SQF3)
Assay: TRPM3 ion channel driven Ca2+ uptake, Fluo-4 AM assay, mTRPM3alpha2 overexpressing flip-in HEK293 cells stimulated with pregnenolone sulfate
Type: cell-based
Outline: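 Read-out is Ca2+ influx via Fluo-4 AM fluorescence at 485/535 nm, taken right after seeding ~2000 cells/well onto compound with 50 μM PS. Inhibition computed from RFU between vehicle-stimulated and positive-control-inhibitor wells; cells were mTRPM3α2-overexpressing flip-in HEK293.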

[1] = PS (50 μM) stimulated, cpd 001-199
[2] = PS (50 μM) stimulated, cpds. 667-751
[3] = PS (50 μM) stimulated, cpds. 400-499
[4] = PS (50 μM) stimulated, cpds. 500-599
[5] = PS (50 μM) stimulated, cpds. 608-666

Chain of mouse TRPM3α2 (mTRPM3) ion channel (J9SQF3 other isoform, or with tags, fused parts or gaps): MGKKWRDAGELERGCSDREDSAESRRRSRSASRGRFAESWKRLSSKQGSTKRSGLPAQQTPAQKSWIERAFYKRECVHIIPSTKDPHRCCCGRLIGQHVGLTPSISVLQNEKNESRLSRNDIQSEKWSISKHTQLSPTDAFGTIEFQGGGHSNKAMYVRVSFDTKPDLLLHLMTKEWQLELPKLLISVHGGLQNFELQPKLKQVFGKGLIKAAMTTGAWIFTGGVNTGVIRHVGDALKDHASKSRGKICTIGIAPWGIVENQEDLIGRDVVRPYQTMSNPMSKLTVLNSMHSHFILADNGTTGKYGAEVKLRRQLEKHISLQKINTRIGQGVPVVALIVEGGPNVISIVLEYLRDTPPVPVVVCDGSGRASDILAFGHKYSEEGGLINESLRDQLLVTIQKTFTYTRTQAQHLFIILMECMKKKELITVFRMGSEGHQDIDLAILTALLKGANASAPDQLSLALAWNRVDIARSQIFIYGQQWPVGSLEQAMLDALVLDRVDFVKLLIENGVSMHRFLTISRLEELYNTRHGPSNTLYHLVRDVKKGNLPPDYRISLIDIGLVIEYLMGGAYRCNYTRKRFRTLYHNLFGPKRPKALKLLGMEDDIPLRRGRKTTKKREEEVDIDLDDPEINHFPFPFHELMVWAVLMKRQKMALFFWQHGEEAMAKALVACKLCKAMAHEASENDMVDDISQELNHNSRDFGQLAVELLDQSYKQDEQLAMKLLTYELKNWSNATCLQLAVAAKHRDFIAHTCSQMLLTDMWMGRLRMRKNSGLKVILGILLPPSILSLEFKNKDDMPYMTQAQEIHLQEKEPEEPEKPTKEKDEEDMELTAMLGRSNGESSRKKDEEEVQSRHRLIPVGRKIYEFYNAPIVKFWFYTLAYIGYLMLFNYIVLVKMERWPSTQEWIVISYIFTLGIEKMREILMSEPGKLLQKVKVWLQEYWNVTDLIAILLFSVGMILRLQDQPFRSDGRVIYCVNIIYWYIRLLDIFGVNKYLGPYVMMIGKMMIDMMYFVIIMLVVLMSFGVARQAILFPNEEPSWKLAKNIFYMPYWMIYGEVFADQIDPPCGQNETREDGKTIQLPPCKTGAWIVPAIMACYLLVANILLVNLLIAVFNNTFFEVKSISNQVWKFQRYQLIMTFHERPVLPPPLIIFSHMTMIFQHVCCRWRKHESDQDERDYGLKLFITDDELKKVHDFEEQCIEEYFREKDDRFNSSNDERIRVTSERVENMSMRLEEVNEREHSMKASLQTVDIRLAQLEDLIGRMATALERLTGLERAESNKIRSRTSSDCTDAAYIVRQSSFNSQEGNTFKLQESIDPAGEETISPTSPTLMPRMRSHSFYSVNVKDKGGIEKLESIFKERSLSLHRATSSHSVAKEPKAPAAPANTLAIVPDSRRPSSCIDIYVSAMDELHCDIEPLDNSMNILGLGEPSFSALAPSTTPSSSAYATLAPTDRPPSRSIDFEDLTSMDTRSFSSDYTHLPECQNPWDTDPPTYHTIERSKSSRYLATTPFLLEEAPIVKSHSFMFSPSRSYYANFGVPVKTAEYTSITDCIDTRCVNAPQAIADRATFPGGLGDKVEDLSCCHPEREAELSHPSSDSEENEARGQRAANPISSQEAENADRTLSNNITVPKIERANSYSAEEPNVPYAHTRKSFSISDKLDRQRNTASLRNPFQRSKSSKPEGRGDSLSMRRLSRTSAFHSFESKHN

Cc1oc2ccc(OCc3ccc4nccn4c3)cc2c1C(=O)NC1CCNCC1(F)F (centres unmarked) [compound 070, N-(3,3-difluoropiperidin-4-yl)-5-(imidazo[1,2-a]pyridin-6-ylmethoxy)-2-methylbenzofuran-3-carboxamide]
IC50 [1]: < 1 µM

Cc1ncc(COc2ccc3oc(C4CC4)c(C(=O)N[C@@H](CO)C(N)=O)c3c2)o1 [compound 751, (S)-N-(1-amino-3-hydroxy-1-oxopropan-2-yl)-2-cyclopropyl-5-((2-methyloxazol-5-yl)methoxy) benzofuran-3-carboxamide]
IC50 [2]: < 1 µM

Cc1ncsc1COc1ccc2oc(C)c(C(=O)NC3CNCC3(F)F)c2c1 (single isomer, unassigned) [cpd 106-En 1]
IC50 [1]: < 1 µM

Cc1nc(C)c(COc2ccc3oc(C)c(C(=O)N[C@H](C(N)=O)[C@@H](C)O)c3c2)s1 [compound 382, N-((2S,3R)-1-amino-3-hydroxy-1-oxobutan-2-yl)-5-((2,4-dimethylthiazol-5-yl)methoxy)-2-methylbenzofuran-3-carboxamide]
IC50 (PS 50 μM, cpds 300-399): < 1 µM

Cc1oc2ccc(OCc3ccccn3)cc2c1C(=O)NC1(C(N)=O)CCC1 [compound 472, N-(1-carbamoylcyclobutyl)-2-methyl-5-(pyridin-2-ylmethoxy)benzofuran-3-carboxamide]
IC50 [3]: < 1 µM

COc1ncccc1COc1ccc2oc(C)c(C(=O)NC3CCNCC3(F)F)c2c1 (single isomer, unassigned) [cpd 565-En 1]
IC50 [4]: < 1 µM

Cc1csc(COc2ccc3oc(C)c(C(=O)NC4CCNCC4(F)F)c3c2)n1 (single isomer, unassigned) [cpd 552-En 2]
IC50 [4]: 1 to 20 µM

Cc1ncsc1COc1ccc2oc(C)c(C(=O)NC3(CO)COC3)c2c1F [compound 328, 4-fluoro-N-(3-(hydroxymethyl)oxetan-3-yl)-2-methyl-5-((4-methylthiazol-5-yl)methoxy)benzofuran-3-carboxamide]
IC50 (PS 50 μM, cpds 300-399): < 1 µM

Cc1ncsc1COc1cc2c(C(=O)NC3(CO)CC3)c(C)oc2cc1F [compound 361, 6-fluoro-N-(1-(hydroxymethyl)cyclopropyl)-2-methyl-5-((4-methylthiazol-5-yl)methoxy)benzofuran-3-carboxamide]
IC50 (PS 50 μM, cpds 300-399): < 1 µM

Cc1oc2ccc(OCc3cccnc3C(F)(F)F)cc2c1C(=O)NC(C)(C)CO [compound 109, N-(1-hydroxy-2-methylpropan-2-yl)-2-methyl-5-((2-(trifluoromethyl)pyridin-3-yl)methoxy)benzofuran-3-carboxamide]
IC50 [1]: < 1 µM

Cc1ncsc1COc1ccc2oc(C)c(C(=O)NC3CCNCC3(F)F)c2c1F (single isomer, unassigned) [cpd 562-En 1]
IC50 [4]: < 1 µM

Cc1oc2ccc(OCc3cccnc3C(F)(F)F)c(C#N)c2c1C(=O)NC1CCNCC1(F)F (single isomer, unassigned) [191-En 1, 4-cyano-N-(3,3-difluoropiperidin-4-yl)-2-methyl-5-((2-(trifluoromethyl)pyridin-3-yl)methoxy) -benzofuran-3-carboxamide]
IC50 [1]: > 20 µM

Cc1oc2ccc(OCc3ccccn3)cc2c1C(=O)NC1CCNC1=O (centres unmarked) [compound 026, 2-methyl-N-(2-oxopyrrolidin-3-yl)-5-(pyridin-2-ylmethoxy)benzofuran-3-carboxamide]
IC50 [1]: < 1 µM

Cc1oc2ccc(OCc3cccnc3C(F)(F)F)cc2c1C(=O)Nc1cn[nH]c1 [compound 158, 2-methyl-N-(1H-pyrazol-4-yl)-5-((2-(trifluoromethyl)pyridin-3-yl)methoxy)benzofuran-3-carboxamide]
IC50 [1]: < 1 µM

Cc1oc2ccc(OCc3cccc(=O)n3C)cc2c1C(=O)NC1CCNCC1(F)F (single isomer, unassigned) [cpd 545-En 1]
IC50 [4]: 1 to 20 µM

Cc1oc2ccc(OCc3cccnc3C(F)(F)F)cc2c1C(=O)N[C@@H]1CN(C(=O)OCC(F)(F)F)CC1(F)F [compound 175, 2,2,2-trifluoroethyl (R)-3,3-difluoro-4-(2-methyl-5-((2-(trifluoromethyl)pyridin-3-yl)methoxy) -benzofuran-3-carboxamido)pyrrolidine-1-carboxylate]
IC50 [1]: < 1 µM

Cc1ncccc1COc1ccc2oc(C)c(C(=O)N[C@H](C(N)=O)[C@@H](C)O)c2c1 [compound 376, N-((2S,3R)-1-amino-3-hydroxy-1-oxobutan-2-yl)-2-methyl-5-((2-methylpyridin-3-yl)methoxy)benzofuran-3-carboxamide]
IC50 (PS 50 μM, cpds 300-399): < 1 µM

Cc1oc2ccc(OCc3cccnn3)cc2c1C(=O)NC1(CO)CCOCC1 [compound 624, N-(4-(hydroxymethyl)tetrahydro-2H-pyran-4-yl)-2-methyl-5-(pyridazin-3-ylmethoxy)benzofuran-3-carboxamide]
IC50 [5]: < 1 µM

Cc1ncc(COc2ccc3oc(C)c(C(=O)NCC4(C#N)CC4)c3c2)s1 [compound 370, N-((1-cyanocyclopropyl)methyl)-2-methyl-5-((2-methylthiazol-5-yl)methoxy)benzofuran-3-carboxamide]
IC50 (PS 50 μM, cpds 300-399): < 1 µM

Cc1oc2ccc(OCc3ccc(F)cn3)cc2c1C(=O)NC1(CO)CCOCC1 [compound 359, 5-((5-fluoropyridin-2-yl)methoxy)-N-(4-(hydroxymethyl)tetrahydro-2H-pyran-4-yl)-2-methylbenzofuran-3-carboxamide]
IC50 (PS 50 μM, cpds 300-399): < 1 µM

Cc1ncc(COc2ccc3oc(C)c(C(=O)NC4(C(N)=O)COC4)c3c2)s1 [compound 580, N-(3-carbamoyloxetan-3-yl)-2-methyl-5-((2-methylthiazol-5-yl)methoxy)benzofuran-3-carboxamide]
IC50 [4]: < 1 µM

Cc1ncsc1COc1ccc2oc(C)c(C(=O)NC3CCN(CC(F)(F)F)CC3)c2c1 [compound 166, 2-methyl-5-((4-methylthiazol-5-yl)methoxy)-N-(1-(2,2,2-trifluoroethyl)piperidin-4-yl)benzofuran-3-carboxamide]
IC50 [1]: < 1 µM

Cc1ccc(COc2ccc3oc(C4CC4)c(C(=O)N[C@@H](CO)C(N)=O)c3c2)cn1 [compound 750, (S)-N-(1-Amino-3-hydroxy-1-oxopropan-2-yl)-2-cyclopropyl-5-((6-methylpyridin-3-yl)methoxy)benzofuran-3-carboxamide]
IC50 [2]: < 1 µM

Cc1ncsc1COc1ccc2oc(C)c(C(=O)NC3CCNCC3(F)F)c2c1 (centres unmarked) [compound 056, N-(3,3-difluoropiperidin-4-yl)-2-methyl-5-((4-methylthiazol-5-yl)methoxy)benzofuran-3-carboxamide]
IC50 [1]: < 1 µM

Cc1ncc(COc2ccc3oc(C)c(C(=O)NC(COC(F)F)C(N)=O)c3c2)s1 (single isomer, unassigned) [447-En 1, N-(1-amino-3-(difluoromethoxy)-1-oxopropan-2-yl)-2-methyl-5-((2-methylthiazol-5-yl)methoxy)benzofuran-3-carboxamide]
IC50 [3]: < 1 µM

Cc1oc2ccc(OCC3CCOCC3)cc2c1C(=O)O [compound 015, 2-methyl-5-((tetrahydro-2H-pyran-4-yl)methoxy)benzofuran-3-carboxylic acid]
IC50 [1]: > 20 µM

Cc1oc2ccc(OCc3ccnn3C)cc2c1C(=O)NC1CNCC1(F)F (single isomer, unassigned) [cpd 639-En 1]
IC50 [5]: < 1 µM

Cc1oc2ccc(OCc3ccc(F)cn3)cc2c1C(=O)NC(C)(CO)C(N)=O (single isomer, unassigned) [cpd 739-En 1]
IC50 [2]: < 1 µM

Cc1ncsc1COc1ccc2oc(C)c(C(=O)NC(CO)C(F)(F)F)c2c1 (single isomer, unassigned) [cpd 316-En 1]
IC50 (PS 50 μM, cpds 300-399): < 1 µM
